Several values for one entry are separate records, joined by “and”; a condition that tells them apart may be missing. Equal entries are not always repeated. Toxic doses and inconclusive results are not listed. Peptide text beside a SMILES is read from it. * marks the point of attachment. CH2Cl = ClC*
Test system: P388 leukemia ip, CD2F1 mice, survival T/C
Assay: NCI In Vivo Anticancer Drug Screen. Data for tumor model P388 Leukemia (intraperitoneal) in CD2F1 (CDF1) mice
Settings: endpoint: median survival time, higher = longer survival
Method in brief: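 Mice carrying the transplanted tumor received test compound or vehicle. Survival was recorded in each group, and the value is the treated-group measurement divided by that of the vehicle-treated control group.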

[1] = dose: 50.0 mg/kg/injection, schedule: Q01DX009 (ip), vehicle: saline
[2] = dose: 100.0 mg/kg/injection, schedule: Q01DX009 (ip), vehicle: saline
[3] = dose: 200.0 mg/kg/injection, schedule: Q01DX009 (ip), vehicle: saline
[4] = dose: 100.0 mg/kg/injection, schedule: Q04DX003 (ip), vehicle: saline with Tween-80
[5] = dose: 400.0 mg/kg/injection, schedule: Q04DX003 (ip), vehicle: saline with Tween-80
[6] = dose: 25.0 mg/kg/injection, schedule: Q01DX009 (ip), vehicle: saline with Tween-80
[7] = dose: 200.0 mg/kg/injection, schedule: Q04DX003 (ip), vehicle: saline with Tween-80
[8] = dose: 50.0 mg/kg/injection, schedule: Q01DX005 (ip), vehicle: Klucel (hydroxypropylcellulose) (HPC)
[9] = dose: 100.0 mg/kg/injection, schedule: Q01DX005 (ip), vehicle: Klucel (hydroxypropylcellulose) (HPC)
[10] = dose: 200.0 mg/kg/injection, schedule: Q01DX005 (ip), vehicle: Klucel (hydroxypropylcellulose) (HPC)
[11] = dose: 25.0 mg/kg/injection, schedule: Q01DX009 (ip), vehicle: saline

Structure (SMILES): CCOC(=O)CC1CC(=O)C(C(=O)OCC)C=C1C(=O)OCC (stereo not drawn)
- T/C (dose: 50.0 mg/kg/injection, schedule: Q01DX005 (ip), vehicle: saline with Tween-80): 94 % of control
- T/C (dose: 100.0 mg/kg/injection, schedule: Q01DX005 (ip), vehicle: saline with Tween-80): 98 % of control

Structure (SMILES): Cc1cc2c(cc1C)C(=O)CCC(=O)N2
- T/C (dose: 60.0 mg/kg/injection, schedule: Q01DX005 (ip), vehicle: saline with Tween-80): 102 % of control
- T/C (dose: 120.0 mg/kg/injection, schedule: Q01DX005 (ip), vehicle: saline with Tween-80): 97 % of control
- T/C (dose: 240.0 mg/kg/injection, schedule: Q01DX005 (ip), vehicle: saline with Tween-80): 96 % of control

Structure (SMILES): CCCOc1cc2c(cc1C(C)(C)c1ccc(OC)cc1)OCO2
- T/C (dose: 50.0 mg/kg/injection, schedule: Q01DX005 (ip), vehicle: saline + Tween-80 + alcohol): 102 % of control
- T/C (dose: 100.0 mg/kg/injection, schedule: Q01DX005 (ip), vehicle: saline + Tween-80 + alcohol): 111 % of control
- T/C (dose: 200.0 mg/kg/injection, schedule: Q01DX005 (ip), vehicle: saline + Tween-80 + alcohol): 95 % of control

Structure (SMILES): CC(C=NC1CCCCC1)c1ccccc1 (stereo not drawn)
- T/C [1]: 96 % of control
- T/C [2]: 87 % of control
- T/C [3]: 102 % of control

Structure (SMILES): COCCCNS(=O)(=O)c1ncnc2nc[nH]c12
- T/C [2]: 104 % of control
- T/C [4]: 108 % of control
- T/C [3]: 100 % of control
- T/C (dose: 400.0 mg/kg/injection, schedule: Q01DX009 (ip), vehicle: saline): 86 % of control
- T/C [5]: 108 % of control

Structure (SMILES): O=C(O)CCC(=O)C1=CSC(=C2SC=CS2)S1
- T/C (dose: 60.0 mg/kg/injection, schedule: Q01DX005 (ip), vehicle: Klucel + Tween-80): 106 % of control

Structure (SMILES): CC(=O)NC(CC(C)C)C(=O)NC(Cc1ccccc1)C(=O)CCl (stereo not drawn) (Ac-Leu-Phe-CH2Cl; configuration not given here)
- T/C (dose: 3.12 mg/kg/injection, schedule: Q01DX009 (ip), vehicle: Klucel (hydroxypropylcellulose) (HPC)): 103 % of control
- T/C (dose: 6.25 mg/kg/injection, schedule: Q01DX009 (ip), vehicle: Klucel (hydroxypropylcellulose) (HPC)): 113 % of control
- T/C (dose: 12.5 mg/kg/injection, schedule: Q01DX009 (ip), vehicle: Klucel (hydroxypropylcellulose) (HPC)): 120 % of control
- T/C (dose: 25.0 mg/kg/injection, schedule: Q01DX009 (ip), vehicle: Klucel (hydroxypropylcellulose) (HPC)): 116 % of control

Structure (SMILES): CCN(CC)CCSCCCNc1cc(C)nc2c1ccc1c2ccc2c(NCCCSCCN(CC)CC)cc(C)nc21
- T/C (dose: 1.56 mg/kg/injection, schedule: Q01DX009 (ip), vehicle: distilled water + Tween-80): 100 % of control
- T/C (dose: 3.12 mg/kg/injection, schedule: Q01DX009 (ip), vehicle: distilled water + Tween-80): 102 % of control
- T/C (dose: 6.25 mg/kg/injection, schedule: Q01DX009 (ip), vehicle: distilled water + Tween-80): 104 % of control
- T/C (dose: 12.5 mg/kg/injection, schedule: Q01DX009 (ip), vehicle: distilled water + Tween-80): 100 % of control

Structure (SMILES): COc1cc(/C=C/[N+](=O)[O-])c(OC)cc1Br
- T/C [6]: 122 % of control

Structure (SMILES): CCCCCCCCCCCCCCCCC1(C)c2ccccc2N(C)C12C=Cc1cc([N+](=O)[O-])ccc1O2 (stereo not drawn)
- T/C [4]: 103 % of control
- T/C [7]: 100 % of control
- T/C [5]: 100 % of control

Structure (SMILES): C=C(C)CC1=C(C)C(=O)C(C)=C(C)C1=O
- T/C (dose: 75.0 mg/kg/injection, schedule: Q04DX003 (ip), vehicle: Klucel (hydroxypropylcellulose) (HPC)): 110 % of control
- T/C (dose: 150.0 mg/kg/injection, schedule: Q04DX003 (ip), vehicle: Klucel (hydroxypropylcellulose) (HPC)): 105 % of control
- T/C (dose: 300.0 mg/kg/injection, schedule: Q04DX003 (ip), vehicle: Klucel (hydroxypropylcellulose) (HPC)): 122 % of control

Structure (SMILES): N#CC1CCCCC1C1(C#N)CCCCC1Cc1nccc2ccccc12 (stereo not drawn)
- T/C [4]: 95 % of control
- T/C [7]: 100 % of control
- T/C [5]: 86 % of control

Structure (SMILES): CCCn1c(C)nc2c(cnn2C)c1=O
- T/C [8]: 101 % of control
- T/C [9]: 104 % of control
- T/C [10]: 111 % of control

Structure (SMILES): CCCCCCCCCCCCOCC[N+](CCO)(CCO)Cc1ccccc1
- T/C (dose: 0.25 mg/kg/injection, schedule: Q01DX009 (ip), vehicle: saline): 100 % of control
- T/C (dose: 0.5 mg/kg/injection, schedule: Q01DX009 (ip), vehicle: saline): 100 % of control
- T/C (dose: 1.0 mg/kg/injection, schedule: Q01DX009 (ip), vehicle: saline): 100 % of control

Structure (SMILES): Cc1ccc(SSC(=S)Nc2ccccc2)cc1
- T/C (dose: 12.5 mg/kg/injection, schedule: Q01DX009 (ip), vehicle: saline with Tween-80): 93 % of control
- T/C [6]: 90 % of control
- T/C (dose: 50.0 mg/kg/injection, schedule: Q01DX009 (ip), vehicle: saline with Tween-80): 100 % of control and 114 % of control
- T/C (dose: 100.0 mg/kg/injection, schedule: Q01DX009 (ip), vehicle: saline with Tween-80): 114 % of control

Structure (SMILES): S=C(NNC(=S)Nc1ccccc1)Nc1ccccc1
- T/C [11]: 102 % of control
- T/C (dose: 50.0 mg/kg/injection, schedule: Q01DX009 (ip), vehicle: Klucel (hydroxypropylcellulose) (HPC)): 97 % of control
- T/C [1]: 109 % of control
- T/C (dose: 100.0 mg/kg/injection, schedule: Q01DX009 (ip), vehicle: Klucel (hydroxypropylcellulose) (HPC)): 93 % of control
- T/C [2]: 100 % of control
- T/C (dose: 200.0 mg/kg/injection, schedule: Q01DX009 (ip), vehicle: Klucel (hydroxypropylcellulose) (HPC)): 101 % of control
- T/C (dose: 400.0 mg/kg/injection, schedule: Q01DX009 (ip), vehicle: Klucel (hydroxypropylcellulose) (HPC)): 104 % of control

Structure (SMILES): CSc1nc2ccc(N)cc2s1
- T/C [4]: 97 % of control
- T/C [7]: 99 % of control
- T/C [5]: 93 % of control

Structure (SMILES): CCCCCCCCCCCCCCCCCC[N+]1(CC)CCCC1
- T/C (dose: 6.25 mg/kg/injection, schedule: Q01DX009 (ip), vehicle: saline): 97 % of control
- T/C (dose: 12.5 mg/kg/injection, schedule: Q01DX009 (ip), vehicle: saline): 97 % of control
- T/C [11]: 97 % of control

Structure (SMILES): NCC1CCCCO1 (stereo not drawn)
- T/C (dose: 50.0 mg/kg/injection, schedule: Q01DX005 (ip), vehicle: saline): 98 % of control
- T/C (dose: 100.0 mg/kg/injection, schedule: Q01DX005 (ip), vehicle: saline): 99 % of control
- T/C (dose: 200.0 mg/kg/injection, schedule: Q01DX005 (ip), vehicle: saline): 91 % of control

Structure (SMILES): Cc1cc(C)nc(NCCCCNc2nc(C)cc(C)n2)n1
- T/C [8]: 92 % of control
- T/C [9]: 105 % of control
- T/C [10]: 100 % of control

Structure (SMILES): CCCCC(=O)N(c1ccc(Nc2c3ccccc3nc3cc([N+](=O)[O-])ccc23)cc1)S(C)(=O)=O
- T/C (dose: 0.07 mg/kg/injection, schedule: Q01DX009 (ip), vehicle: saline with Tween-80): 107 % of control
- T/C (dose: 0.1 mg/kg/injection, schedule: Q01DX009 (ip), vehicle: saline with Tween-80): 107 % of control
- T/C (dose: 0.15 mg/kg/injection, schedule: Q01DX009 (ip), vehicle: saline with Tween-80): 105 % of control
- T/C (dose: 0.23 mg/kg/injection, schedule: Q01DX009 (ip), vehicle: saline with Tween-80): 123 % of control
- T/C (dose: 0.44 mg/kg/injection, schedule: Q04DX003 (ip), vehicle: saline with Tween-80): 112 % of control
- T/C (dose: 0.66 mg/kg/injection, schedule: Q04DX003 (ip), vehicle: saline with Tween-80): 113 % of control
- T/C (dose: 1.0 mg/kg/injection, schedule: Q04DX003 (ip), vehicle: saline with Tween-80): 119 % of control
- T/C (dose: 2.5 mg/kg/injection, schedule: Q01DX009 (ip), vehicle: saline with Tween-80): 188 % of control
- T/C (dose: 4.4 mg/kg/injection, schedule: Q04DX003 (ip), vehicle: saline with Tween-80): 154 % of control
- T/C (dose: 5.0 mg/kg/injection, schedule: Q01DX009 (ip), vehicle: saline with Tween-80): 227 % of control
- T/C (dose: 6.6 mg/kg/injection, schedule: Q04DX003 (ip), vehicle: saline with Tween-80): 159 % of control
- T/C (dose: 9.38 mg/kg/injection, schedule: Q01DX009 (ip), vehicle: saline with Tween-80): 227 % of control
- T/C (dose: 10.0 mg/kg/injection, schedule: Q01DX009 (ip), vehicle: saline with Tween-80): 254 % of control
- T/C (dose: 10.0 mg/kg/injection, schedule: Q04DX003 (ip), vehicle: saline with Tween-80): 168 % of control
- T/C (dose: 10.8 mg/kg/injection, schedule: Q04DX003 (ip), vehicle: water): 153 % of control
- T/C (dose: 15.0 mg/kg/injection, schedule: Q04DX003 (ip), vehicle: saline with Tween-80): 186 % of control
- T/C (dose: 18.0 mg/kg/injection, schedule: Q04DX003 (ip), vehicle: water): 162 % of control
- T/C (dose: 30.0 mg/kg/injection, schedule: Q04DX003 (ip), vehicle: water): 180 % of control
- T/C (dose: 50.0 mg/kg/injection, schedule: Q04DX003 (ip), vehicle: water): 171 % of control
